What was measured:
[1] = target: Alpha-2A adrenergic receptor (Homo sapiens) (UniProt P08913); settings: Compound concentration 10.0 uM
[2] = target: Histamine H1 receptor (Homo sapiens) (UniProt P35367); settings: Compound concentration 10.0 uM
[3] = target: D(2) dopamine receptor (Homo sapiens) (UniProt P14416); settings: Compound concentration 10.0 uM
[4] = target: Alpha-2A adrenergic receptor (Homo sapiens) (UniProt P08913); settings: Compound concentration 10.0 uM; remark: listed apart in the source
[5] = target: Serine/threonine-protein kinase Nek8 (Homo sapiens, UniProt Q86SG6); assay: Nek8(NEK8LGRI) Takeda global kinase panel
Serine/threonine-protein kinase Nek8, sequence (Q86SG6 whole entry): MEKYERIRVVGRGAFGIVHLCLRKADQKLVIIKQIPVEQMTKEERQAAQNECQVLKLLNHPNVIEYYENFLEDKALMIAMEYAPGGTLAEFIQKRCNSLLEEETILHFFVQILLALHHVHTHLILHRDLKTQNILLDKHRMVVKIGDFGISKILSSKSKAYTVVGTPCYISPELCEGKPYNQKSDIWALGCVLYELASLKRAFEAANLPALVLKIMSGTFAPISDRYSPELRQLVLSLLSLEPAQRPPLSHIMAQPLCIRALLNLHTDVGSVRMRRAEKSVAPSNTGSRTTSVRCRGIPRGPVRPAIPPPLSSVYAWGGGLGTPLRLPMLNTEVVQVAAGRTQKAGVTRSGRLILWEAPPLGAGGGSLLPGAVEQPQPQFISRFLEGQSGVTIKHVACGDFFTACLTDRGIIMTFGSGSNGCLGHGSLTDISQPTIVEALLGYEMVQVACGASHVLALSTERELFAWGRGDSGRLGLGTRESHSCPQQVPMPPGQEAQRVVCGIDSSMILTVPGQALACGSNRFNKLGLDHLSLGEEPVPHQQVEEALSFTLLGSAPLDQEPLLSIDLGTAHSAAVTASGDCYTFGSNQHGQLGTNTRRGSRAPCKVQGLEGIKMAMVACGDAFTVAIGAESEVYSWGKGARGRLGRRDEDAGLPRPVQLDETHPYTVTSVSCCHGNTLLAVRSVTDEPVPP

[6] = target: T1, Muscarinic acetylcholine receptor M2 (Homo sapiens) (UniProt P08172); settings: Compound concentration 10.0 uM
T1 sequence (whole entry): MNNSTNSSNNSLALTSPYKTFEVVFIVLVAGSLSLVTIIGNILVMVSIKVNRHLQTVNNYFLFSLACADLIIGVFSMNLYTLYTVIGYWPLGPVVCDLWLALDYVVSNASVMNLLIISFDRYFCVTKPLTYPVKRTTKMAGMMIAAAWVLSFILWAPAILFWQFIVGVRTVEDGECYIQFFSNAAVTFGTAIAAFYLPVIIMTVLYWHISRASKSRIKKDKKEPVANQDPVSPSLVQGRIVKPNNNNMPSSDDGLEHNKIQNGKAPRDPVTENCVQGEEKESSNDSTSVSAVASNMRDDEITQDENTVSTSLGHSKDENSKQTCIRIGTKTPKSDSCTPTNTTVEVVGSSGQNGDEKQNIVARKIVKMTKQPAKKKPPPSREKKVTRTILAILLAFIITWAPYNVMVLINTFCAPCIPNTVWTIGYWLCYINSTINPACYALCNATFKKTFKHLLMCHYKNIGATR

[7] = target: Acetylcholine receptor subunit alpha (Homo sapiens) (UniProt P02708); assay: Inhibition of Nicotinic Acetylcholine D1, Bungarotoxin at 10 µM in the Eurofins-Panlabs radioligand binding assay (Eurofins_assay_258700); settings: Compound concentration 10.0 uM
[8] = target: Delta-type opioid receptor (Homo sapiens) (UniProt P41143); settings: Compound concentration 10.0 uM
Delta-type opioid receptor (Homo sapiens), sequence (P41143 whole entry): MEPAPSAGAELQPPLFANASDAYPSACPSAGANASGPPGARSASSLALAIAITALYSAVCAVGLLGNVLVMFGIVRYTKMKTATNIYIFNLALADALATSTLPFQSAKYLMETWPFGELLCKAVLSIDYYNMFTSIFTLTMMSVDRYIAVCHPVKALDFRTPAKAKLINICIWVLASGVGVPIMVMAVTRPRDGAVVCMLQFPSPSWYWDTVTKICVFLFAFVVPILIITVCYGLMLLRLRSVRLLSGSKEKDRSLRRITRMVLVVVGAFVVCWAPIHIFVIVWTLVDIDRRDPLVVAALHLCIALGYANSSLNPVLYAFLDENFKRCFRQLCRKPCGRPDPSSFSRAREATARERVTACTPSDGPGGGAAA

[9] = target: 5-hydroxytryptamine receptor 1B (Homo sapiens) (UniProt P28222); settings: Compound concentration 10.0 uM
[10] = target: Beta-3 adrenergic receptor (Homo sapiens) (UniProt P13945); settings: Compound concentration 10.0 uM
[11] = target: GABA-A receptor; anion channel (Rattus norvegicus) (UniProt O09028+P15431+P18506+P18508+P19969+P20236+P23574+P23576+P28471+P28473+P30191+P62813+P63079+P63138+Q91ZM7+Q9ES14); settings: Compound concentration 10.0 uM
[12] = target: Serine/threonine-protein kinase N2 (Homo sapiens, UniProt Q16513); assay: PKN2 [PRK2(PKN2LGG5)] Takeda global kinase panel
[13] = target: Serine/threonine-protein kinase LATS1 (Homo sapiens, UniProt O95835); assay: LATS1(LAT1LGRJ) Takeda global kinase panel
[14] = target: 5'-AMP-activated protein kinase catalytic subunit alpha-1 (Homo sapiens, UniProt Q13131); assay: AMPKalpha1(PRA1PGF1) Takeda global kinase panel
[15] = target: 5'-AMP-activated protein kinase catalytic subunit alpha-2 (Homo sapiens, UniProt P54646); assay: AMPKalpha2(PRA2LGY1) Takeda global kinase panel
[16] = target: Fibroblast growth factor receptor 1 (Homo sapiens, UniProt P11362); assay: FGFR1(FGF1LGF1) Takeda global kinase panel
[17] = target: Tyrosine-protein kinase JAK2 (Homo sapiens, UniProt O60674); assay: JAK2(JAK2LGF1) Takeda global kinase panel
[18] = target: Mitogen-activated protein kinase 7 (Homo sapiens, UniProt Q13164); assay: ERK5(MAP7LGF1) Takeda global kinase panel
Mitogen-activated protein kinase 7, sequence (Q13164 whole entry): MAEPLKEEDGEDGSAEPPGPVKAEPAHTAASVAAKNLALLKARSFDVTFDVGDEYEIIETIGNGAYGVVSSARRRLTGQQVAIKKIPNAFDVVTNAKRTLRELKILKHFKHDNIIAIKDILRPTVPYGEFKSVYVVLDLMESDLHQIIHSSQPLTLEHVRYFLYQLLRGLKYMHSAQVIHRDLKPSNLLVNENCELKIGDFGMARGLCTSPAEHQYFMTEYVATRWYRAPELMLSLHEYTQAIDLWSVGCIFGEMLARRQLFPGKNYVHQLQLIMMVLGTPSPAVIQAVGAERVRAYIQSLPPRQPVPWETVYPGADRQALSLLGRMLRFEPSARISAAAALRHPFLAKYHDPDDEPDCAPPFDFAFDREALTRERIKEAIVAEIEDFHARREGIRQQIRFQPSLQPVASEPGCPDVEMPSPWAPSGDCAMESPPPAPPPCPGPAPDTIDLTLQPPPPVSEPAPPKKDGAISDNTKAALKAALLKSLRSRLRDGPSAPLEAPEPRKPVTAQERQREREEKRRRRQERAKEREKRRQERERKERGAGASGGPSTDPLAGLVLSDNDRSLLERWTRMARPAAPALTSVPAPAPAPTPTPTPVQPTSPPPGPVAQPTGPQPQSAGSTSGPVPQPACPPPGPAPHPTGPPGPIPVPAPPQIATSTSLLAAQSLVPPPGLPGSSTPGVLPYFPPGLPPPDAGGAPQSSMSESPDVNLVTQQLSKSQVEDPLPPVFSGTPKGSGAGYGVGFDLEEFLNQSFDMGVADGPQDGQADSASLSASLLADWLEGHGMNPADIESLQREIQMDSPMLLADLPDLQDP

[19] = target: voltage-gated sodium channel, site 2 (Rattus norvegicus, UniProt F1LQQ7+O08562+O88420+O88457+P04774+P04775+P08104+P15389+P15390+Q62968); assay: Inhibition of Sodium Channel, Site 2 at 10 µM in the Eurofins-Panlabs radioligand binding assay (Eurofins_assay_279510); format: protein assay; parameters: ligand concentration 5 nM, non-specific ligand with concentration 100 µM Veratridine, incubation time 60 min, incubation temperature 37 °C; settings: male, Wistar, whole brain (except cerebellum) membranes of rats, probe [3H] Batrachotoxinin, compound concentration 10 uM
[20] = target: Calcium/calmodulin-dependent protein kinase type 1 (Homo sapiens, UniProt Q14012); assay: CaMK1alpha(CAM1LGT5) Takeda global kinase panel
[21] = target: Hepatocyte growth factor receptor (Homo sapiens, UniProt P08581); assay: Met([…]) Takeda global kinase panel
Hepatocyte growth factor receptor, sequence (P08581 whole entry): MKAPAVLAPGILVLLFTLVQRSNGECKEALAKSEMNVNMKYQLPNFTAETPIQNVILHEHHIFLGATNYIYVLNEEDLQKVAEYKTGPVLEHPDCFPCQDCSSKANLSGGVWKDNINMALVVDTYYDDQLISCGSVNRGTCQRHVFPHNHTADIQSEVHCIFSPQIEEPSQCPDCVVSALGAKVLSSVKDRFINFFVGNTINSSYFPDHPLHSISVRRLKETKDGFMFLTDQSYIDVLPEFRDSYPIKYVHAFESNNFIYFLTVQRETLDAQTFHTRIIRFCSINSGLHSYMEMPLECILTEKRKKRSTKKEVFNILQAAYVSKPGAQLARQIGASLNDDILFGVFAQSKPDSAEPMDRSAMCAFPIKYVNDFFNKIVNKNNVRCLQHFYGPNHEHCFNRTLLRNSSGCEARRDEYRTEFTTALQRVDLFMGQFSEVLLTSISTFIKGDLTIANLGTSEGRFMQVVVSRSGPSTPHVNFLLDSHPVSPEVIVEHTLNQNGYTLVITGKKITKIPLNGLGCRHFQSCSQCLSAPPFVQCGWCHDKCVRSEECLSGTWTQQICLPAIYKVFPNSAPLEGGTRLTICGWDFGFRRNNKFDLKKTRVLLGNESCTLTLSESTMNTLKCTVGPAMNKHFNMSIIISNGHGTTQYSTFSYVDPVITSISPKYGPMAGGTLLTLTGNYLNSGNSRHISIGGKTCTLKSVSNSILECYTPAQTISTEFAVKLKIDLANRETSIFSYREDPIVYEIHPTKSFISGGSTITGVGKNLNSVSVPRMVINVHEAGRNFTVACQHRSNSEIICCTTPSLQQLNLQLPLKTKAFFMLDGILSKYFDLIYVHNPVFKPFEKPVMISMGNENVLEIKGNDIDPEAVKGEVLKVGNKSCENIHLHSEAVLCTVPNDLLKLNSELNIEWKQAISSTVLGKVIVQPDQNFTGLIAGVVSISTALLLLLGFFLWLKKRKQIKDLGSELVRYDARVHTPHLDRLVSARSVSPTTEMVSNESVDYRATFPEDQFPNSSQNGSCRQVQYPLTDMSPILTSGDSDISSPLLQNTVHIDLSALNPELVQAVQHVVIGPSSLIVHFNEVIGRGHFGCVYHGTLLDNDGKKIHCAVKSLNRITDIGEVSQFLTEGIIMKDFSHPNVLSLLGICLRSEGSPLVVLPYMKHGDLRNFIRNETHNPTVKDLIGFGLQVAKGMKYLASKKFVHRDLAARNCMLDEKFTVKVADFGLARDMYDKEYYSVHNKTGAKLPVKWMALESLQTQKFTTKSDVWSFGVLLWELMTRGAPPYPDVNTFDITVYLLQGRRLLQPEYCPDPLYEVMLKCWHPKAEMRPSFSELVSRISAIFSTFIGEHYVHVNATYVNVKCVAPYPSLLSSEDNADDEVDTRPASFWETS

[22] = target: Tyrosine-protein kinase receptor TYRO3 (Homo sapiens, UniProt Q06418); assay: Tyro3 [Sky(TYR3LGY1)] Takeda global kinase panel
[23] = target: Proto-oncogene tyrosine-protein kinase receptor Ret (Homo sapiens, UniProt P07949); assay: Ret(RET1LGF1) Takeda global kinase panel
[24] = target: Macrophage-stimulating protein receptor (Homo sapiens, UniProt Q04912); assay: Ron(MST1MGY1) Takeda global kinase panel
[25] = target: Interleukin-1 receptor-associated kinase 1 (Homo sapiens, UniProt P51617); assay: IRAK1(IRK1LGF1) Takeda global kinase panel
Interleukin-1 receptor-associated kinase 1, sequence (P51617 whole entry): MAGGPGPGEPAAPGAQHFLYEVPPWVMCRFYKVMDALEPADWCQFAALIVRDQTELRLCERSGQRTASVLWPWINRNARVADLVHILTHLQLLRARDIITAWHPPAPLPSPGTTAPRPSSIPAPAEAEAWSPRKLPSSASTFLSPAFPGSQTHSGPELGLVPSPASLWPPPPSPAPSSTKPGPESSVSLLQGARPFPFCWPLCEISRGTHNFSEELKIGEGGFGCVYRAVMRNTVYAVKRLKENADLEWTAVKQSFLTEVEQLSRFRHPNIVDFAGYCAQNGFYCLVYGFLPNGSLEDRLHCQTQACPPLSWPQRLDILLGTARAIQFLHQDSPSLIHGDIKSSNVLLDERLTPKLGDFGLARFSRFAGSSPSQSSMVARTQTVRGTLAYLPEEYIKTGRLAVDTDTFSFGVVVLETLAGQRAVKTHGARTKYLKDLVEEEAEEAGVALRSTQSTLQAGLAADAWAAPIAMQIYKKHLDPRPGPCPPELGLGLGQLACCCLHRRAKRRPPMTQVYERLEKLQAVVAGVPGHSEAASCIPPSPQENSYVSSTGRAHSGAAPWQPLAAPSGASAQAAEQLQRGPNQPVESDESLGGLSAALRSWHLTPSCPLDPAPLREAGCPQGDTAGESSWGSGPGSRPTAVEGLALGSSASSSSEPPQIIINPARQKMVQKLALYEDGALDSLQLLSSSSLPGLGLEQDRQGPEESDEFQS

Alpha-2A adrenergic receptor (Homo sapiens), sequence (P08913 whole entry): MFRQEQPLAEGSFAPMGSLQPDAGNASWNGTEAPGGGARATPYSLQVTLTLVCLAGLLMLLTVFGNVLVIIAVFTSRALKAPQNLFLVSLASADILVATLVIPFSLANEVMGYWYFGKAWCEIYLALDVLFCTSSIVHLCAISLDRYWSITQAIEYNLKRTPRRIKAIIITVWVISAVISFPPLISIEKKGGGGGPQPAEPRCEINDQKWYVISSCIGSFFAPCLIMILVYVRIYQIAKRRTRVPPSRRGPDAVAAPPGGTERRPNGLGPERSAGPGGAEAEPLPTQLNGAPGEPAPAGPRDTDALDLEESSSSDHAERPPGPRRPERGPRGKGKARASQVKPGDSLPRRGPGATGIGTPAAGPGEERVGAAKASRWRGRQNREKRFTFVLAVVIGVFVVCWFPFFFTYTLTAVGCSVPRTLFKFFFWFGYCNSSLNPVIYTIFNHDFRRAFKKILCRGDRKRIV
Histamine H1 receptor (Homo sapiens), sequence (P35367 whole entry): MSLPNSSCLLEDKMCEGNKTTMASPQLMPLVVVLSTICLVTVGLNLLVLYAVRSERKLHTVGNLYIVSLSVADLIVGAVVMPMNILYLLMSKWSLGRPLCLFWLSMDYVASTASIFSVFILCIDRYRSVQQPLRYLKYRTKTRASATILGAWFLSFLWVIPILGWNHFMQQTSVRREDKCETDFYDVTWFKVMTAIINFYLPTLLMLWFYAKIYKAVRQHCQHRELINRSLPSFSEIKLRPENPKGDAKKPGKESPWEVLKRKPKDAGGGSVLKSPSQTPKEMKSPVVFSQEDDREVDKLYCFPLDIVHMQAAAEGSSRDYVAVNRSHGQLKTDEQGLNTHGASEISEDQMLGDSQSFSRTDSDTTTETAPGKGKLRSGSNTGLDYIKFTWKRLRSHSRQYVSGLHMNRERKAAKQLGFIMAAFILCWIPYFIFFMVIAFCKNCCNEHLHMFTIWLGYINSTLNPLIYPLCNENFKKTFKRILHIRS

In the case of CN1C(=O)[C@@H](N2CCc3cn(Cc4ccccc4)nc3C2=O)COc2ccccc21 [TP-030-1], the inhibition [1] is reported as 19.1%, the inhibition [2] is reported as 20.5% and the inhibition [3] is reported as -5.46%. It also gave an inhibition [4] of 7%, an IC50 [5] of 1000 nM and an inhibition [6] of -4.37%. For the same compound, the inhibition [7] was -8%, the inhibition [8] was 28.8% and the inhibition [9] was 0.99%. It also gave an inhibition [10] of 9.8%, an inhibition [11] of -3.98% and an IC50 [12] of 1000 nM. The IC50 [13] was 1000 nM.
In the case of CN1C(=O)[C@@H](N2CCc3cn(CC4CCS(=O)(=O)CC4)nc3C2=O)COc2ccccc21 [TP-030n], the IC50 [14] is reported as 1000 nM, the IC50 [15] is reported as 1000 nM and the IC50 [16] is reported as 1000 nM. For the same compound, the IC50 [17] was 1000 nM, the IC50 [18] was 1000 nM and the inhibition at 60 min, 10 µM [19] was 9% (not active). For the same compound, the IC50 [20] was 1000 nM, the IC50 [21] was 1000 nM and the IC50 [22] was 1000 nM. The IC50 [23] was 1000 nM, the IC50 [24] was 1000 nM and the IC50 [25] was 1000 nM.

Reference: ChEMBL document CHEMBL4507327 (2021)
